Data on five molecules can be found in patent publication EP4806892A1, “CEREBLON E3 UBIQUITIN LIGASE INHIBITOR” (GAN & LEE PHARMACEUTICALS CO., LTD., priority 2023, dated 2025).

Holding throughout (format): cell-based
The test system of one experiment is T-47D cells. Put plainly: T-47D cell proliferation inhibition (CCK-8). As to conditions: Homo sapiens, T47D, 144 h, 6 days. Here is the method:
The complete culture medium required for breast ductal carcinoma T-47D cells is 1640 (ATCC, Product number: A10491-01) basal medium containing 10% fetal bovine serum. T-47D cells were seeded in 96-well plates at a density of 3,000/well, and different concentrations of PROTAC compounds 1-55 provided in the embodiments of the present invention and the positive control sample ARV-471 (source: Inokai) were prepared to treat the cells and incubated at 37°C, 5% CO2 in a cell culture incubator for 6 days. According to the manufacturer's instructions, the CCK-8 kit (Beyotime, Product number: C0040) was used to detect cell viability. The IC50 of each compound for 6 days was calculated using GraphPadPrism software based on the inhibition rate. Table 6: IC50 value for the inhibition of T-47D cell proliferation by PROTAC compounds and positive control sample

A further experiment has as its system MCF-7 cells. Put plainly: MCF-7 cell proliferation inhibition (CCK-8). The following applies: Homo sapiens, MCF7, 144 h, 6 days. Here is the method:
The complete culture medium required for breast cancer MCF-7 cells (source ATCC) is DMEM (gibco, Product number: 11995-065) basal medium containing 10% fetal bovine serum. MCF-7 cells were seeded in 96-well plates at a density of 800 cells/well, and different concentrations of PROTAC compounds 1-55 provided in the embodiments of the present invention and the positive control sample ARV-471 (source: Inokai) were prepared to treat cells. The cells were incubated at 37 °C and 5% CO2 in a cell culture incubator for 6 days. Cell viability was detected using a CCK-8 kit (Beyotime, Product number: C0040) according to the manufacturer's instructions. The IC50 value of each PROTAC compound for 6 days was calculated using GraphPad Prism software based on the inhibition rate. Table 7: IC50 value for the inhibition of MCF-7 cell proliferation by PROTAC compounds of the present disclosure and positive control sample

In another experiment the test system is VCaP cell. Briefly: VCaP cell proliferation inhibition (WST-8). The following applies: Homo sapiens, VCaP cells, 168 hours, read-out: IC50 for inhibiting VCAP cell proliferation. Here is the method:
VCaP cells (ATCC, CRL-2876) were cultured in DMEM (Gibco, 11995-065) complete medium containing 10% fetal bovine serum (Hyclone, SH30406.05). On the first day of the experiment, VCaP cells were seeded at a density of 15,000 cells/well in a 96-well plate using DMEM medium containing 10% fetal bovine serum, with 100 µL of cell suspension per well, and cultured overnight in a cell culture incubator at 37°C and 5% CO2. […] The final concentration of the compound was 9 concentration points of 5-fold serial dilution starting from 10 µM. The wells to which 100 µL of DMEM medium containing 10% fetal bovine serum was added were set as blank controls and cultured in a cell culture incubator at 37°C and 5% CO2 for 168 hours. On the ninth day, the 96-well cell culture plate was removed and 1/10 volume of WST-8 (Beytime, C0040) reagent was added to each well. The absorbance at 450 nm was measured using a microplate reader (TECAN, F50).
For orientation: Tetrazolium assays rely on reduction of a dye to a coloured formazan, in cell work by metabolically active cells.

The test system of another experiment is LNCAP cell. Briefly: LNCaP cell proliferation inhibition (WST-8). As to conditions: Homo sapiens, LNCaP FGC cells, 96 hours, read-out: IC50 for inhibiting LNCAP cell proliferation. Here is the method:
LNCaP FGC cells (ATCC, CLR-1740) were cultured in RPMI 1640 (ATCC, 30-2001) complete medium supplemented with 10% fetal bovine serum (Hyclone, SH30406.05). On the first day of the experiment, LNCaP FGC cells were seeded at a density of 5,000 cells/well in 96-well plates using RPMI 1640 medium supplemented with 10% fetal bovine serum, with 100 µL of cell suspension per well. The cells were cultured overnight in a 37°C, 5% CO2 cell incubator. On the second day, 100 µL of different concentrations of the compound to be tested and the positive control sample ARV-766 (source: Energy Chemical) prepared in culture medium were added to each well. The final concentration of the compound was 9 concentration points of 5-fold serial dilution starting from 10 µM. The wells to which 100 µL of RPMI 1640 culture medium containing 10% fetal bovine serum was added were set as controls. The cells were cultured in a cell culture incubator at 37°C and 5% CO2 for 96 hours. On the sixth day, the 96-well cell culture plate was removed, and 1/10 volume of WST-8 (Beytime, C0040) reagent was added to each well. The absorbance at 450 nm was detected using a microplate reader (TECAN, F50).

A further experiment has as its target T1, AR protein (Homo sapiens, UniProt P10275, T878A).
T1 construct: AR-positive human prostate cancer cells (LNCaP, cell source: ATCC); host or cells: LNCaP
Put plainly: AR protein degradation in LNCaP cells (Western blot). As to conditions: 8 hours. As to the method: AR-positive human prostate cancer cells (LNCaP, cell source: ATCC) were cultured in RPMI 1640 (ATCC catalog number 30-2001) containing 10% FBS (Hyclone catalog number SH30406.05), and the cells were inoculated into a six-well microplate (Thermo catalog number 140675) at a density of 1.5 × 10^5 cells/well. After the cells were cultured overnight in a carbon dioxide incubator (ESCO), the prepared compound of the present invention and the positive control sample ARV-766 (source: energy chemical) solution of different concentrations were added at a volume of 1 µL/well to make the final concentrations of the compound and the positive control sample reach 100nM and 10nM, respectively. At the same time, the corresponding solvent control was set and cultured for 8 hours. After 8 hours of culture, the culture medium was removed, the cells were washed with PBS, and RIPA lysis buffer containing 1% Protease Inhibitor Cocktail was added. After lysis and centrifugation, the total protein extract was obtained, and the protein concentration in the extract was detected by BCA method. Protein electrophoresis was performed using SDS-PAGE, and then the protein was transferred to a PVDF (Millipore Sigma catalog number PSRP010R5) membrane at a constant voltage of 100V for 60 minutes. The PVDF membrane was placed in a 5% milk powder 1×TBST solution and blocked at room temperature for 1 hour. The primary antibody solution (Anti-Androgen receptor, Cell Signaling Technology catalog number: 5153S; 1:2000 dilution) was prepared and incubated at 4°C overnight. The primary antibody solution was discarded and the PVDF membrane was washed with 1×TBST for 5 minutes each time, three times. The secondary antibody solution (Thermo, catalog number SA5-35571; 1:7500 dilution) was prepared and incubated at room temperature for 1 hour. The secondary antibody solution was discarded and the PVDF membrane was washed with 1×TBST for 5 minutes each time, three times. A dual-color infrared laser imaging system (Licor catalog number Odyssey CLX) was used for Western membrane imaging. The Image Studio software was used to analyze the grayscale of the bands. GAPDH protein bands were also detected for each sample as an internal reference. The AR protein degradation rate of the compound and the positive control sample was calculated based on the grayscale of the protein bands. Among them, "A" means degradation rate ≥ 50%, "B" means 50%> degradation rate ≥ 20%, "C" means 20% degradation rate ≥ 10%, and "D" means degradation rate less than 10%.
In general terms: A western blot detects proteins with antibodies after separation by electrophoresis.

T1 sequence (P10275 whole entry T878A): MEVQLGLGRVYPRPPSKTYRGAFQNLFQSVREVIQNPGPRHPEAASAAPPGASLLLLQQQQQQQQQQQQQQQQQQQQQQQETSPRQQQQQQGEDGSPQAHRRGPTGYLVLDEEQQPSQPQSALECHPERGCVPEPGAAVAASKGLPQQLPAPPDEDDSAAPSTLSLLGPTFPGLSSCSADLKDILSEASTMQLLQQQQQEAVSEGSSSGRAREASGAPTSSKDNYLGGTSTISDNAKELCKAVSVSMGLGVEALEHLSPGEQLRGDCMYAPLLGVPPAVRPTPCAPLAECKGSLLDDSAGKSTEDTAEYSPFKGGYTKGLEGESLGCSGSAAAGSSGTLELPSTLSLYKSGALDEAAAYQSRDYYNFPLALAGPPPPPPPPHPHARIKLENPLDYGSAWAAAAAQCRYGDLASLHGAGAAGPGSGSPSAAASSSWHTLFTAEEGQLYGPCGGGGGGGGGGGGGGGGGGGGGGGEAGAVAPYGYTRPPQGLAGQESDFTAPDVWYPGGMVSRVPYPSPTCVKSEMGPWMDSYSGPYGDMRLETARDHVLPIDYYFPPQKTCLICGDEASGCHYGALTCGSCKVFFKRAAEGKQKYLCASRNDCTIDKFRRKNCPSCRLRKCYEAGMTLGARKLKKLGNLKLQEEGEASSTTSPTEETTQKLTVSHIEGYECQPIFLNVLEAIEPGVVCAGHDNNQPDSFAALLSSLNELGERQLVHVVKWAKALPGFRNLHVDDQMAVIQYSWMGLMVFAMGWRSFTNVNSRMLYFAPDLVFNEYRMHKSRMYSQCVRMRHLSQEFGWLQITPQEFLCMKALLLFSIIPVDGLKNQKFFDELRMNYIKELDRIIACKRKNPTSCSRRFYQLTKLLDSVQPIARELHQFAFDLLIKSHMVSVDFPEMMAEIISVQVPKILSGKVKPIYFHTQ
T1 sequence (Q96SW2 whole entry partner): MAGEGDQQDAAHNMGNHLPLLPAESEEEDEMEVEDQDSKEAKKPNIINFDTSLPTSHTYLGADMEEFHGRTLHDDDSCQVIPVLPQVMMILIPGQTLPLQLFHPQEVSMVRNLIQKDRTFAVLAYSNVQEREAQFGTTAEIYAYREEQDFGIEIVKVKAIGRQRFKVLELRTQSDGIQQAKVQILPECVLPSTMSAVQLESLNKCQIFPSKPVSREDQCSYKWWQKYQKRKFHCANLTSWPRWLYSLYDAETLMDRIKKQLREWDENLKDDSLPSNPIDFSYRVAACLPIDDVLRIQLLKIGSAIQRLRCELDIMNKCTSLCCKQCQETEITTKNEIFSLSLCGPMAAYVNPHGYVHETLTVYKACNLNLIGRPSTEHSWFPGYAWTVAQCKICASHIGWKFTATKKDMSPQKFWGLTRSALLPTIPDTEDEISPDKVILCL

Take `O=C1CCN(c2ccc3c(c2)OCC32CCN(C[C@H]3CC[C@@H](OC4CCN(c5ccc([C@@H]6c7ccc(O)cc7CC[C@@H]6c6ccccc6)cc5)CC4)CC3)CC2)C(=O)N1` [ER-P-4, 1-(1'-(((1S,4S)-4-((1-(4-((1R,2S)-6-hydroxy-2-phenyl-1,2,3,4-tetrahydronaphthalen-1-yl)phenyl)piperidin-4-yl)oxy)cyclohexyl)methyl)-2H-spiro [benzofuran-3,4'-piperidine]-6-yl)dihydropyrimidine-2,4(1H,3H)-dione]: the IC50 with T-47D cells came out at 52.5 nM; with MCF-7 cells, 944 nM.

In the case of `O=C1CCC(c2ccc3c(c2)OC2(CC3)CCN(C[C@H]3CC[C@@H](OC4CCN(c5ccc([C@@H]6c7ccc(O)cc7CC[C@@H]6c6ccccc6)cc5)CC4)CC3)CC2)C(=O)N1` (stereo partly drawn) [ER-P-5, 3-(1'-(((1S,4S)-4-((1-(4-((1R,2S)-6-hydroxy-2-phenyl-1,2,3,4-tetrahydronaphthyl-1-yl)phenyl)piperidin-4-yl)oxy)cyclohexyl)methyl)spiro[chroman-2,4'-piperidine]-7-yl)piperidine-2,6-dione], in the experiment on MCF-7 cells, the IC50 was determined as 873 nM.

For `COc1cc(N2CC3(CCN(c4ccc(C(=O)N5CCC(CN6CCC7(CCc8ccc(N9CCC(=O)NC9=O)cc8O7)CC6)CC5)cc4)CC3)C[C@@H]2C)ccc1C#N` [A-P-83, (S)-4-(8-(4-(4-((7-(2,4-dioxotetrahydropyrimidin-1(2H)-yl)spiro[chroman-2,4'-piperidine]-1'-yl)methyl)piperidine-1-carbonyl)phenyl)-3-methyl-2,8-diazaspiro[4.5]dec-2-yl)-2-methoxybenzonitrile], the IC50 was < 0.026 nM in the experiment with VCaP cell and 550 nM with LNCAP cell. The “Degradation rate of AR protein in LNCAP cells” value at AR protein (10 nM) and at AR protein (100 nM) was “A (degradation rate ≥ 50%)” throughout.

For `O=C1CCN(c2ccc3c(c2)CC2(CCN(C[C@H]4CC[C@@H](OC5CCN(c6ccc([C@@H]7c8ccc(O)cc8CC[C@@H]7c7ccccc7)cc6)CC5)CC4)CC2)CO3)C(=O)N1` [ER-P-6, 1-(1'-(((1S,4S)-4-((1-(4-((1R,2S)-6-hydroxy-2-phenyl-1,2,3,4-tetrahydronaphthalen-1-yl)phenyl)piperidin-4-yl)oxy)cyclohexyl)methyl)spiro[benzo-dihydro-3,4'-piperidin]-6-yl)dihydropyrimidine-2,4(1H,3H)-dione], the values for the IC50 in the experiment with T-47D cells and in the experiment on MCF-7 cells were 367 nM and 847 nM, respectively.

As for `O=C1CC[C@H](N2Cc3cc(N4CCN(CC5CCN(c6ccc([C@@H]7c8ccc(O)cc8CC[C@@H]7c7ccccc7)cc6)CC5)CC4)ccc3C2=O)C(=O)N1` [ARV-471, reference compound], the IC50 is 2.69 nM with T-47D cells and 113 nM in the experiment on MCF-7 cells.
